Patent US8623917B2, “Uses of prostacyclin analogs” (The Regents of the University of Colorado, a body corporate, priority 2005, dated 2014)

How the values were obtained:
[1] = test system: MCA/BHT-induced lung tumors; test: MCA/BHT lung tumorigenesis protocol, oral Iloprost in diet; format: in vivo, FVB/N mice
Protocol: (§1) Transgenic mice (Tg^+) and wildtype littermates (Tg^−), 8 to 12 weeks of age, were subjected to two distinct lung carcinogenesis protocols. In the first model, urethane (ethyl carbamate), a carcinogen which selectively induces pulmonary adenomas through genetic mutations in the oncogene ras, was administered in a single intraperitoneal (ip) dose. […] BHT is a tumor promoter and induces reversible pulmonary damage characterized by alveolar type I cell necrosis, selective pulmonary inflammation, and hyperplasia of alveolar type II cells. Controls for both models consisted of mice injected with vehicle alone. The oral administration of Iloprost was investigated and found to have a similar beneficial effects to PGIS overexpression. FVB/N mice were fed a diet of low (0.1%) or high (3.0%) dose Iloprost continuously throughout the experiment and then were subjected to tumorigenesis protocols with either urethane or MCA/BHT. At the conclusion of the experiments, animals were euthanized and tumors enumerated.

[2] = test system: urethane-induced lung tumors; test: Urethane lung tumorigenesis protocol, oral Iloprost in diet; format: in vivo, FVB/N mice
Protocol: as §1

[3] = test system: cancer metastasis to the lung; conditions: Iloprost administered to mice; cited from earlier work
[4] = 3.0% Iloprost diet compared with 0.1%
[5] = diet of low (0.1%) or high (3.0%) dose Iloprost continuously

Structure (SMILES): CC#CCC(C)[C@H](O)/C=C/[C@@H]1[C@H]2C/C(=C/CCCC(=O)O)C[C@H]2C[C@H]1O (some centres unmarked) [Iloprost]
- reduction in multiplicity, high versus low dose [1, 4]: greater reduction in multiplicity
- tumor multiplicity [1, 5]: significant reduction in tumor multiplicity
- reduction in multiplicity, high versus low dose [2, 4]: greater reduction in multiplicity
- tumor multiplicity [2, 5]: significant reduction in tumor multiplicity
- prevention of cancer metastasis to the lung [3]: did not prevent cancer metastasis to the lung
